What all share (assay type): in vivo, mouse
One experiment has as its system leptine. As to the kind of experiment: Plasma leptine rates after administration of NaCl or MDMA. The conditions noted are these: single administration MDMA 10 mg/kg, wild or mutant mice; p=0.95. The method, then:
The data represents the average±the standard deviation from the average of the leptine rates of the plasma expressed in ng/mL after the administration of NaCl (0.9%) or of MDMA (10 mg/kg) in the wild (+/+) or the disabled (−/−) mice for the gene coding for the 5-HT4 receptor, aged six to 10 months on the average. **p<0.01 significant effect of the genotype after a variance analysis (ANOVA) followed by an F test of Scheffé.

For experiment [1], the system named is 5-HT4 receptor. As to the kind of experiment: Ingestion of food after 24 h food deprivation and i.p. drug injection (protocol of Lucas et al., 1998). The conditions noted are these: for diminution of ingestion of food vs NaCl-treated mice of same genotype / effect on ingestion of food vs NaCl-treated mice of same genotype: MDMA 10 mg/kg, RS 39604 0.5 mg/kg i.p.; for effect on ingestion of food vs NaCl-treated mice of same genotype: 3 h after administration. The method, then: Each drug used to treat the wild mice disabled for the gene coding for the 5-HT4 receptor was diluted extemporaneously in a saline solution of NaCl (0.9%) and injected in a systemic manner (i.p.). The injection volume of each treatment was 200 μL for 30 g. The wild mice or those disabled for the 5-HT4 receptor (n=35) received the following treatments: NaCl, MDMA (or ecstasy or 3,4-N-methylene dioxymethamphetamine, SIGMA, 10 mg/kg), RS 39604, […]/MDMA.
(§1) The MDMA (10 mg/kg, Sigma, user license 9900431 S, V. Compan) and RS 39604 (0.5 mg/kg), antagonist of the 5-HT4 receptor, were administered by themselves or in a combined treatment to the wild mice or those deprived of the 5-HT4 receptor (n=12-17 by genotype and pharmacological products).
Ingestion of food by the wild mice and the mice disabled for the gene coding for the 5-HT4 receptor was evaluated in accordance with the test protocol described by Lucas et al., 1998. The different mice were isolated for a habituation period of three days in the presence of food and water supplied ad libitum during which the weights of the mice and of the food consumed were measured daily at the same hour. On the fourth day the mice were deprived of their food for 24 hours. The drugs were injected such as NaCl after the food deprivation period to determine the effect of the different treatments on ingestion of food. Food was reintroduced into each cage after an interval of 10 min for the other treatments. Three successive weighings of the food were then carried out 30 min, 1 h and 3 h after the reintroduction of the food.

Experiment [2] has as its system 5-HT4 receptor. As to the kind of experiment: Taking of food in mice nourished ad libitum (dose selection for RS 39604). The conditions noted are these: 0.5 mg/kg, not illustrated. The method, then:
as §1

The subject of experiment [3] is 5-HT4 receptor. As to the kind of experiment: Constraint stress (forced immobilization 110 min): ingestion of food and weight. The conditions noted are these: RS 39604 1 mg/kg, not shown. The method, then:
Each of the tests was divided into three phases: A period of habituation (7 days), the day of the constraint stress (immobilization for 110 min) and a recovery stage (10 days). The mice were divided into a control group and a constraint group. On the stress day the wild mice disabled for the gene coding for the 5-HT4 receptor received an injection of NaCl […], 1 mg/kg of RS 39604, antagonist of the 5-HT4 receptor. […] Ingestion of food was then measured 2 h 30 min, 3 and 5 h and each day during the recovery period.

The structures appear in SMILES notation.

As for `CNC(C)Cc1ccc2c(c1)OCO2` (stereo not drawn) [MDMA, 3,4-N-methylene dioxymethamphetamine], the “rates of leptine in plasma” value in the experiment on leptine was “does not modify the rates of leptine”. For the same compound, the “diminution of ingestion of food vs NaCl-treated mice of same genotype” value in the experiment with 5-HT4 receptor [1] (mice lacking the 5-HT4 receptor (−/−), 30 min after administration) is on record as −69.07%; in the experiment on 5-HT4 receptor [1] (mice lacking the 5-HT4 receptor (−/−), 1 h after administration) it was −68.49%; with 5-HT4 receptor [1] (wild mice (+/+), 30 min after administration, 24 h food deprivation), −95.38%; in the experiment on 5-HT4 receptor [1] (wild mice (+/+), 1 h after administration, 24 h food deprivation), −88.56%. Further, the “effect on ingestion of food vs NaCl-treated mice of same genotype” value in the experiment with 5-HT4 receptor [1] (mice lacking the 5-HT4 receptor (−/−)) is “no longer observed”; in the experiment with 5-HT4 receptor [1] (wild mice (+/+), 24 h food deprivation), “absent”.
Turning to `COc1cc(COc2cc(N)c(Cl)cc2C(=O)CCC2CCN(CCNS(C)(=O)=O)CC2)cc(OC)c1` [RS 39604], the “taking of food vs mice treated with NaCl or other dosages” value in the experiment with 5-HT4 receptor [2] (mutant animals for the 5-HT4 receptors) is given as “without effect”; with 5-HT4 receptor [2] (nourished wild mice ad libitum), “increase of the taking of food”. The “effect of treatment alone on ingestion of food (statistical analysis of genotype, treatment, interaction)” value with 5-HT4 receptor [1] (RS 39604 0.5 mg/kg i.p. alone, wild and mutant mice, 24 h food deprivation) was “does not reveal significant”. Besides, in the experiment with 5-HT4 receptor [3] (wild female mice), the “ingestion of food after constraint stress preceded by injection” value was “not modified”. For the same compound, in the experiment on 5-HT4 receptor [3] (wild mice), the “weight losses after constraint stress vs NaCl-treated animals” value is recorded as “reduced the weight losses”.

For the origin of these results see patent US8436021B2, “Pharmaceutical composition for treating and/or preventing a pathology associated with an obsessional behavior or with obesity” (priority 2002, dated 2013).
